A short description of series [1]: Metabolic stability in mouse intestinal homogenate (GIh). Conditions: for remaining at 1 h, 10 µM / remaining at 1 h, 10 μM: CES1–/–, mouse, intestinal homogenate; for Intestinal homogenate: supplementary CSV, unit not given, matches Table 1 % remaining at 1 h, in %.
Series [2] can be described thus: Metabolic stability in mouse plasma. The following applies: for Plasma: supplementary CSV, unit not given, matches Table 1 % remaining at 1 h, in %.

Consider `C[C@H](NC(=O)CN(C)C)C(=O)N[C@@H](CCC(=O)C=[N+]=[N-])C(=O)OC(C)(C)C` [Prodrug P19, tert-Butyl (S)-6-Diazo-2-((S)-2-(2-(dimethylamino)acetamido)propanamido)-5-oxohexanoate], for which the amount remaining at 1 h, 10 µM in series [1] amounted to 86 ± 4%; in series [2] (CES1–/–, mouse, plasma), 99 ± 2%. Further, the Intestinal homogenate in series [1] amounted to 86 ± 4. The molecule also returned a Plasma in series [2] of 99 ± 2.

In the case of `CNC(=O)[C@H](CCC(=O)C=[N+]=[N-])NC(=O)[C@H](Cc1c[nH]c2ccccc12)NC(C)=O` [Prodrug P6, (S)-2-((S)-2-Acetamido-3-(1H-indol-3-yl)propanamido)-6-diazo-N-methyl-5-oxohexanamide], in series [1], the share remaining at 1 h, 10 µM was found to be 77 ± 1%; the amount remaining at 1 h, 10 μM was greater than 50%; the Intestinal homogenate was found to be 77 ± 1. Further, the amount remaining at 1 h, 10 µM in series [2] (CES1–/–, mouse, plasma) was 102 ± 1%. Further, the Plasma in series [2] was 102 ± 1.

Regarding `CC(C)C[C@H](NC(=O)CN(C)C)C(=O)N[C@@H](CCC(=O)C=[N+]=[N-])C(=O)OC(C)(C)C` [Prodrug P20, tert-Butyl (S)-6-Diazo-2-((S)-2-(2-(dimethylamino)acetamido)-4-methylpentanamido)-5-oxohexanoate], the fraction remaining at 1 h, 10 µM in series [1] came to 79%; in series [2] (CES1–/–, mouse, plasma), 98 ± 2%. In series [1], this molecule displayed an Intestinal homogenate of 79 ± 0. The Plasma in series [2] is on record as 98 ± 2.

On to `CN(C)CC(=O)N[C@@H](Cc1c[nH]c2ccccc12)C(=O)N[C@@H](CCC(=O)C=[N+]=[N-])C(=O)OC(C)(C)C` [Prodrug P9, tert-Butyl (S)-6-Diazo-2-((S)-2-(2-(dimethylamino)acetamido)-3-(1H-indol-3-yl)propanamido)-5-oxohexanoate], for which the amount remaining at 1 h, 10 µM was 66 ± 1% in series [1] and 102 ± 2% in series [2] (CES1–/–, mouse, plasma). The molecule also gave an Intestinal homogenate in series [1] of 66 ± 1. Further, in series [2], the Plasma is listed as 102 ± 2.

Take `CN(C)CC(=O)N[C@@H](Cc1cn(C)c2ccccc12)C(=O)N[C@@H](CCC(=O)C=[N+]=[N-])C(=O)OC(C)(C)C` [Prodrug P10, tert-Butyl (S)-6-Diazo-2-((S)-2-(2-(dimethylamino)acetamido)-3-(1-methyl-1H-indol-3-yl)propanamido)-5-oxohexanoate]: in series [1], the fraction remaining at 1 h, 10 µM was determined as 87 ± 2% and the Intestinal homogenate is 87 ± 2. For the same molecule, the share remaining at 1 h, 10 µM in series [2] (CES1–/–, mouse, plasma) was found to be 97 ± 2%. This molecule also returned a Plasma in series [2] of 97 ± 2.

Regarding `CN(C)CC(=O)N[C@@H](Cc1cccc(F)c1)C(=O)N[C@@H](CCC(=O)C=[N+]=[N-])C(=O)OC(C)(C)C` [Prodrug P16, tert-Butyl (S)-6-Diazo-2-((S)-2-(2-(dimethylamino)acetamido)-3-(3-fluorophenyl)propanamido)-5-oxohexanoate], in series [1], the share remaining at 1 h, 10 µM was determined as 69 ± 7% and the Intestinal homogenate is reported as 69 ± 7. Further, in series [2] (CES1–/–, mouse, plasma), the amount remaining at 1 h, 10 µM is 99 ± 3%. For the same molecule, in series [2], the Plasma is 99 ± 3.

With `CC(=O)N[C@@H](Cc1c[nH]c2ccccc12)C(=O)N[C@@H](CCC(=O)C=[N+]=[N-])C(=O)OC1CC1` [Prodrug P3, Cyclopropyl (S)-2-((S)-2-Acetamido-3-(1H-indol-3-yl)propanamido)-6-diazo-5-oxohexanoate], in series [1], the fraction remaining at 1 h, 10 µM was 6%; the fraction remaining at 1 h, 10 μM is less than 10%; the Intestinal homogenate is given as 6 ± 0.

`CC(=O)N[C@@H](Cc1c[nH]c2ccccc12)C(=O)N[C@@H](CCC(=O)C=[N+]=[N-])C(=O)OC(C)(C)C` [Prodrug P5, tert-Butyl (S)-2-((S)-2-Acetamido-3-(1H-indol-3-yl)propanamido)-6-diazo-5-oxohexanoate]: in series [1], the fraction remaining at 1 h, 10 µM is 99 ± 1%; the share remaining at 1 h, 10 μM was greater than 50%; the Intestinal homogenate is given as 99 ± 1. Also, in series [2] (CES1–/–, mouse, plasma), the fraction remaining at 1 h, 10 µM stood at 92 ± 1%. For the same molecule, in series [2], the Plasma was 92 ± 1.

For the molecule `CC(=O)N[C@@H](Cc1c[nH]c2ccccc12)C(=O)N[C@@H](CCC(=O)C=[N+]=[N-])C(=O)OCC1CC1` [Prodrug P4, Cyclopropylmethyl (S)-2-((S)-2-Acetamido-3-(1H-indol-3-yl)propanamido)-6-diazo-5-oxohexanoate], in series [1], the share remaining at 1 h, 10 µM came out at 1%; the amount remaining at 1 h, 10 μM was less than 10%; the Intestinal homogenate was 1 ± 0.

`CN(C)CC(=O)N[C@@H](CC(C)(C)C)C(=O)N[C@@H](CCC(=O)C=[N+]=[N-])C(=O)OC(C)(C)C` [Prodrug P21, tert-Butyl (S)-6-Diazo-2-((S)-2-(2-(dimethylamino)acetamido)-4,4-dimethylpentanamido)-5-oxohexanoate]: in series [1], the amount remaining at 1 h, 10 µM was determined as 68 ± 1% and the Intestinal homogenate stood at 68 ± 1. Moreover, the fraction remaining at 1 h, 10 µM in series [2] (CES1–/–, mouse, plasma) turned out to be 98 ± 3%. Further, the Plasma in series [2] is recorded as 98 ± 3.

Take `CC(C)(C)OC(=O)[C@H](CCC(=O)C=[N+]=[N-])NC(=O)[C@H](Cc1c[nH]c2ccccc12)NC(=O)CN1CCOCC1` [Prodrug P7, tert-Butyl (S)-2-((S)-3-(1H-Indol-3-yl)-2-(2-morpholinoacetamido)propanamido)-6-diazo-5-oxohexanoate]: in series [1], the amount remaining at 1 h, 10 µM stood at 83 ± 1% and the Intestinal homogenate was determined as 83 ± 1. In series [2] (CES1–/–, mouse, plasma), the amount remaining at 1 h, 10 µM is 95 ± 3%.

Consider `CN(C)CC(=O)NCC(=O)N[C@@H](CCC(=O)C=[N+]=[N-])C(=O)OC(C)(C)C` [Prodrug P18, tert-Butyl (S)-6-Diazo-2-(2-(2-(dimethylamino)acetamido)acetamido)-5-oxohexanoate], for which, in series [1], the fraction remaining at 1 h, 10 µM was 97 ± 1% and the Intestinal homogenate was 97 ± 1. Besides, the share remaining at 1 h, 10 µM in series [2] (CES1–/–, mouse, plasma) was 108 ± 1%. Also, the Plasma in series [2] is listed as 108 ± 1.

`CCOC(=O)[C@H](CCC(=O)C=[N+]=[N-])NC(=O)[C@H](Cc1c[nH]c2ccccc12)NC(C)=O` [Prodrug P2, Ethyl (S)-2-((S)-2-Acetamido-3-(1H-indol-3-yl)propanamido)-6-diazo-5-oxohexanoate]: in series [1], the fraction remaining at 1 h, 10 µM turned out to be 2%; the share remaining at 1 h, 10 μM was less than 10%; the Intestinal homogenate worked out at 2 ± 0.

On to `COC(=O)[C@H](CCC(=O)C=[N+]=[N-])NC(=O)[C@H](Cc1c[nH]c2ccccc12)NC(C)=O` [Prodrug P1, Methyl (S)-2-((S)-2-Acetamido-3-(1H-indol-3-yl)propanamido)-6-diazo-5-oxohexanoate], for which, in series [1], the share remaining at 1 h, 10 µM was determined as 4%; the amount remaining at 1 h, 10 μM is less than 10%; the Intestinal homogenate is listed as 4 ± 0.

Regarding `CN(C)CC(=O)N[C@H](C(=O)N[C@@H](CCC(=O)C=[N+]=[N-])C(=O)OC(C)(C)C)c1ccccc1` [Prodrug P13, tert-Butyl (S)-6-Diazo-2-((S)-2-(2-(dimethylamino)acetamido)-2-phenylacetamido)-5-oxohexanoate], the share remaining at 1 h, 10 μM was 92 ± 1% in series [1] and 92 ± 1% in series [2] (CES1–/–, mouse, plasma). In series [1], the Intestinal homogenate is on record as 92 ± 1. Also, the Plasma in series [2] is on record as 92 ± 1.

In the case of `CN(C)CC(=O)N[C@@H](Cc1ccc(F)cc1)C(=O)N[C@@H](CCC(=O)C=[N+]=[N-])C(=O)OC(C)(C)C` [Prodrug P15, tert-Butyl (S)-6-Diazo-2-((S)-2-(2-(dimethylamino)acetamido)-3-(4-fluorophenyl)propanamido)-5-oxohexanoate], in series [1], the amount remaining at 1 h, 10 µM is 67 ± 1% and the Intestinal homogenate turned out to be 67 ± 1. The fraction remaining at 1 h, 10 µM in series [2] (CES1–/–, mouse, plasma) came to 108 ± 1%. Further, in series [2], the Plasma is given as 108 ± 1.

Turning to `CN(C)CC(=O)N[C@@H](Cc1ccc(C(F)(F)F)cc1)C(=O)N[C@@H](CCC(=O)C=[N+]=[N-])C(=O)OC(C)(C)C` [Prodrug P17, tert-Butyl (S)-6-Diazo-2-((S)-2-(2-(dimethylamino)acetamido)-3-(4-(trifluoromethyl)phenyl)propanamido)-5-oxohexanoate], the fraction remaining at 1 h, 10 µM in series [1] worked out at 76 ± 1%; in series [2] (CES1–/–, mouse, plasma) it was 70 ± 14%. In series [1], the Intestinal homogenate is recorded as 76 ± 1. The molecule further registered a Plasma in series [2] of 70 ± 14.

On to `CN(C)CC(=O)N[C@H](Cc1ccccc1)C(=O)N[C@@H](CCC(=O)C=[N+]=[N-])C(=O)OC(C)(C)C` [Prodrug P12, tert-Butyl (S)-6-Diazo-2-((R)-2-(2-(dimethylamino)acetamido)-3-phenylpropanamido)-5-oxohexanoate], for which, in series [1], the share remaining at 1 h, 10 µM was 90 ± 3% and the Intestinal homogenate is recorded as 90 ± 3. The fraction remaining at 1 h, 10 µM in series [2] (CES1–/–, mouse, plasma) came to 92%. Further, the Plasma in series [2] was 92 ± 0.

(Values after paper PMC10683027, “Discovery of tert-Butyl Ester Based 6-Diazo-5-oxo-L-norleucine Prodrugs for Enhanced Metabolic Stability and Tumor Delivery” (Journal of Medicinal Chemistry, 2023).)
